Our source for the relative viability values is the supplement of paper PMC10307832.

Test in all cases: relative viability (nuclei count vs DMSO), 5 days (fraction); higher = more cells survive
Compound in experiment [1]: COc1cc2nc(N3CCCN(C)CC3)nc(NC3CCN(Cc4ccccc4)CC3)c2cc1OC + O=C(c1cc(Cc2n[nH]c(=O)c3ccccc23)ccc1F)N1CCN(C(=O)C2CC2)CC1 [Olaparib] (partner 8 µM)
A digest of the protocol: (§1)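 Dosing by pin tool came one day after lung cancer cell lines were seeded in 1536-well plates, using either one drug or a fixed anchor-drug dose plus five library-drug doses (not always all listed) in √10 steps. After 5 days, nuclei were counted on 4× images. Relative viability is treated-well nuclei count divided by vehicle-well nuclei count, and values are medians of duplicate plates.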

Compound in the experiment “AZD6482 + Crizotinib”: Cc1cc([C@@H](C)Nc2ccccc2C(=O)O)c2nc(N3CCOCC3)cc(=O)n2c1 [AZD6482] + C[C@@H](Oc1cc(-c2cnn(C3CCNCC3)c2)cnc1N)c1c(Cl)ccc(F)c1Cl [Crizotinib] (partner 1 µM)
Put shortly: as §1

Compound in the experiment “AZD6482 + OSI-027”: Cc1cc([C@@H](C)Nc2ccccc2C(=O)O)c2nc(N3CCOCC3)cc(=O)n2c1 [AZD6482] + COc1cccc2cc(-c3nc([C@H]4CC[C@H](C(=O)O)CC4)n4ncnc(N)c34)[nH]c12 [OSI-027] (partner 0.5 µM)
Put shortly: as §1

Compound in the experiment “AZD6482 + Trametinib”: Cc1cc([C@@H](C)Nc2ccccc2C(=O)O)c2nc(N3CCOCC3)cc(=O)n2c1 [AZD6482] + CC(=O)Nc1cccc(-n2c(=O)n(C3CC3)c(=O)c3c(Nc4ccc(I)cc4F)n(C)c(=O)c(C)c32)c1 [Trametinib] (partner 0.02 µM)
A digest of the protocol: as §1

Turning to NCI-H1299, the relative viability was 0.951 in experiment [1] (first compound 0.2 µM); 0.909 in experiment [1] (first compound 0.6325 µM); 0.997 in experiment [1] (first compound 2 µM); 0.928 in experiment [1] (first compound 6.325 µM); 0.956 in the experiment with AZD6482 + Crizotinib (first compound 0.08 µM); 0.946 with AZD6482 + Crizotinib (first compound 0.253 µM). The relative viability with AZD6482 + Crizotinib (first compound 0.8 µM) was 1.04; with AZD6482 + Crizotinib (first compound 2.53 µM), 0.942; in the experiment with AZD6482 + Crizotinib (first compound 8 µM), 0.989.

Regarding ABC-1, the relative viability with AZD6482 + OSI-027 (first compound 0.08 µM) was determined as 0.51; in the experiment with AZD6482 + OSI-027 (first compound 0.253 µM), 0.478; in the experiment with AZD6482 + OSI-027 (first compound 0.8 µM), 0.358; with AZD6482 + OSI-027 (first compound 2.53 µM) it was 0.401; in the experiment with AZD6482 + OSI-027 (first compound 8 µM), 0.406; in experiment [1] (first compound 0.2 µM), 1.17. Also, the relative viability in experiment [1] (first compound 0.6325 µM) worked out at 0.768; in experiment [1] (first compound 2 µM), 0.983; in experiment [1] (first compound 6.325 µM), 0.915; in the experiment with AZD6482 + Crizotinib (first compound 0.08 µM), 0.853; in the experiment with AZD6482 + Crizotinib (first compound 0.253 µM), 0.969; in the experiment with AZD6482 + Crizotinib (first compound 0.8 µM), 1.03. In addition, the relative viability in the experiment with AZD6482 + Crizotinib (first compound 2.53 µM) came out at 0.899; with AZD6482 + Crizotinib (first compound 8 µM), 0.801.

On to NCI-H1793, for which the relative viability with AZD6482 + OSI-027 (first compound 0.08 µM) came out at 0.266; in the experiment with AZD6482 + OSI-027 (first compound 0.253 µM), 0.243; with AZD6482 + OSI-027 (first compound 0.8 µM), 0.261; with AZD6482 + OSI-027 (first compound 2.53 µM), 0.132; with AZD6482 + OSI-027 (first compound 8 µM), 0.16; with AZD6482 + Trametinib (first compound 0.08 µM), 0.37. Moreover, the relative viability with AZD6482 + Trametinib (first compound 0.253 µM) is 0.397; in the experiment with AZD6482 + Trametinib (first compound 0.8 µM), 0.352; in the experiment with AZD6482 + Trametinib (first compound 2.53 µM), 0.32; with AZD6482 + Trametinib (first compound 8 µM), 0.283; in experiment [1] (first compound 0.2 µM), 0.805; in experiment [1] (first compound 0.6325 µM), 0.924. Besides, the results for the relative viability in experiment [1] (first compound 2 µM) and in experiment [1] (first compound 6.325 µM) were 1.09 and 0.995, respectively.

For SW 900, the relative viability was found to be 0.45 with AZD6482 + OSI-027 (first compound 0.08 µM); 0.471 with AZD6482 + OSI-027 (first compound 0.253 µM); 0.433 in the experiment with AZD6482 + OSI-027 (first compound 0.8 µM); 0.492 in the experiment with AZD6482 + OSI-027 (first compound 8 µM); 0.851 with AZD6482 + Trametinib (first compound 0.08 µM); 0.591 with AZD6482 + Trametinib (first compound 0.253 µM). Besides, the relative viability was 0.703 with AZD6482 + Trametinib (first compound 0.8 µM); 0.43 with AZD6482 + Trametinib (first compound 2.53 µM); 0.568 with AZD6482 + Trametinib (first compound 8 µM); 0.675 in experiment [1] (first compound 0.2 µM); 0.926 in experiment [1] (first compound 0.6325 µM); 0.705 in experiment [1] (first compound 2 µM). For the same cell line, the relative viability in experiment [1] (first compound 6.325 µM) came out at 0.677.

Regarding NCI-H1563, the relative viability turned out to be 0.771 with AZD6482 + OSI-027 (first compound 0.08 µM); 0.749 with AZD6482 + OSI-027 (first compound 0.253 µM); 0.738 with AZD6482 + OSI-027 (first compound 0.8 µM); 0.7 in the experiment with AZD6482 + OSI-027 (first compound 2.53 µM); 0.619 with AZD6482 + OSI-027 (first compound 8 µM); 0.783 with AZD6482 + Crizotinib (first compound 0.08 µM). The relative viability in the experiment with AZD6482 + Crizotinib (first compound 0.253 µM) turned out to be 0.821; with AZD6482 + Crizotinib (first compound 0.8 µM), 0.82; in the experiment with AZD6482 + Crizotinib (first compound 2.53 µM) it was 0.663; in the experiment with AZD6482 + Crizotinib (first compound 8 µM) it was 0.769.

A549: the relative viability in experiment [1] (first compound 0.2 µM) came out at 0.309; in experiment [1] (first compound 0.6325 µM), 0.374; in experiment [1] (first compound 2 µM), 0.206; in experiment [1] (first compound 6.325 µM), 0.368; with AZD6482 + Crizotinib (first compound 0.08 µM) it was 0.73; with AZD6482 + Crizotinib (first compound 0.253 µM), 0.722. Further, the values for the relative viability with AZD6482 + Crizotinib (first compound 0.8 µM), with AZD6482 + Crizotinib (first compound 2.53 µM) and with AZD6482 + Crizotinib (first compound 8 µM) were 0.754, 0.405 and 0.431, respectively.

Consider NCI-H2342, for which the relative viability with AZD6482 + OSI-027 (first compound 0.08 µM) amounted to 0.542; with AZD6482 + OSI-027 (first compound 0.253 µM), 0.586; with AZD6482 + OSI-027 (first compound 0.8 µM), 0.568; with AZD6482 + OSI-027 (first compound 2.53 µM), 0.448; with AZD6482 + OSI-027 (first compound 8 µM), 0.471; in the experiment with AZD6482 + Trametinib (first compound 0.08 µM), 0.682. Moreover, the relative viability with AZD6482 + Trametinib (first compound 0.253 µM) is 0.685; in the experiment with AZD6482 + Trametinib (first compound 0.8 µM) it was 0.799; with AZD6482 + Trametinib (first compound 2.53 µM) it was 0.561; with AZD6482 + Trametinib (first compound 8 µM) it was 0.622; in experiment [1] (first compound 0.2 µM) it was 0.482; in experiment [1] (first compound 0.6325 µM) it was 0.349. The relative viability in experiment [1] (first compound 2 µM) came out at 0.46; in experiment [1] (first compound 6.325 µM) it was 0.459.

Take NCI-H1623: the relative viability is 0.392 in the experiment with AZD6482 + OSI-027 (first compound 0.08 µM); 0.404 in the experiment with AZD6482 + OSI-027 (first compound 0.253 µM); 0.432 in the experiment with AZD6482 + OSI-027 (first compound 0.8 µM); 0.388 with AZD6482 + OSI-027 (first compound 2.53 µM); 0.397 with AZD6482 + OSI-027 (first compound 8 µM).

Regarding NCI-H522, the relative viability with AZD6482 + OSI-027 (first compound 0.08 µM) was determined as 0.599; in the experiment with AZD6482 + OSI-027 (first compound 0.253 µM) it was 0.784; in the experiment with AZD6482 + OSI-027 (first compound 0.8 µM), 0.635; in the experiment with AZD6482 + OSI-027 (first compound 2.53 µM), 0.688; in the experiment with AZD6482 + OSI-027 (first compound 8 µM) it was 0.54; with AZD6482 + Trametinib (first compound 0.08 µM) it was 0.872. Moreover, the relative viability in the experiment with AZD6482 + Trametinib (first compound 0.253 µM) stood at 0.711; in the experiment with AZD6482 + Trametinib (first compound 0.8 µM), 0.841; with AZD6482 + Trametinib (first compound 2.53 µM), 0.549; in the experiment with AZD6482 + Trametinib (first compound 8 µM), 0.566; in experiment [1] (first compound 0.2 µM), 0.556; in experiment [1] (first compound 0.6325 µM) it was 0.788. For the same cell line, the relative viability in experiment [1] (first compound 2 µM) amounted to 0.58; in experiment [1] (first compound 6.325 µM), 0.554.

Take NCI-H1395: the relative viability was 0.519 with AZD6482 + OSI-027 (first compound 0.08 µM); 0.433 in the experiment with AZD6482 + OSI-027 (first compound 0.253 µM); 0.553 in the experiment with AZD6482 + OSI-027 (first compound 0.8 µM); 0.393 with AZD6482 + OSI-027 (first compound 2.53 µM); 0.44 with AZD6482 + OSI-027 (first compound 8 µM); 0.949 with AZD6482 + Trametinib (first compound 0.08 µM). Further, the relative viability was found to be 0.8 in the experiment with AZD6482 + Trametinib (first compound 0.253 µM); 0.785 with AZD6482 + Trametinib (first compound 0.8 µM); 0.522 with AZD6482 + Trametinib (first compound 2.53 µM); 0.627 with AZD6482 + Trametinib (first compound 8 µM); 0.444 in experiment [1] (first compound 0.2 µM); 0.473 in experiment [1] (first compound 0.6325 µM). Further, the relative viability was 0.445 in experiment [1] (first compound 2 µM) and 0.433 in experiment [1] (first compound 6.325 µM).

As for IA-LM, the relative viability came out at 0.682 in experiment [1] (first compound 0.2 µM); 0.75 in experiment [1] (first compound 0.6325 µM); 0.831 in experiment [1] (first compound 2 µM); 0.756 in experiment [1] (first compound 6.325 µM); 0.968 with AZD6482 + Crizotinib (first compound 0.08 µM); 1.06 with AZD6482 + Crizotinib (first compound 0.253 µM). In addition, the relative viability came to 1.01 with AZD6482 + Crizotinib (first compound 0.8 µM) and 1.08 with AZD6482 + Crizotinib (first compound 8 µM).

In the case of EBC-1, the relative viability in experiment [1] (first compound 0.2 µM) was determined as 0.698; in experiment [1] (first compound 0.6325 µM) it was 0.647; in experiment [1] (first compound 2 µM) it was 0.757; in experiment [1] (first compound 6.325 µM) it was 0.5; in the experiment with AZD6482 + Crizotinib (first compound 0.08 µM) it was 0.19; in the experiment with AZD6482 + Crizotinib (first compound 0.253 µM), 0.154. Moreover, the relative viability with AZD6482 + Crizotinib (first compound 0.8 µM) was 0.212; with AZD6482 + Crizotinib (first compound 2.53 µM) it was 0.216; with AZD6482 + Crizotinib (first compound 8 µM), 0.2.
